Measured values reported in patent US20260184726A1, “HETEROCYCLIC COMPOUNDS AS KINASE INHIBITORS, COMPOSITIONS, AND METHODS OF USE THEREOF” (JS INNOMED HOLDINGS LTD., priority 2022, published 2026).

Assays:
BAF3-KIF5B-RET cells = target: T1, BAF3-KIF5B-RET cells (Homo sapiens, UniProt P07949); assay: BAF3-KIF5B-RET Cell Proliferation Assay (CellTiter-Glo); assay type: cell-based; details: growth inhibition, 72 hours; Table 2; read-out: BA/F3-KIF5B-RET Cellular activity
T1 construct: fused on or other part: P33176 (Kinesin-1 heavy chain)
T1 sequence (P07949 whole entry, change not shown, the tested form may be a part): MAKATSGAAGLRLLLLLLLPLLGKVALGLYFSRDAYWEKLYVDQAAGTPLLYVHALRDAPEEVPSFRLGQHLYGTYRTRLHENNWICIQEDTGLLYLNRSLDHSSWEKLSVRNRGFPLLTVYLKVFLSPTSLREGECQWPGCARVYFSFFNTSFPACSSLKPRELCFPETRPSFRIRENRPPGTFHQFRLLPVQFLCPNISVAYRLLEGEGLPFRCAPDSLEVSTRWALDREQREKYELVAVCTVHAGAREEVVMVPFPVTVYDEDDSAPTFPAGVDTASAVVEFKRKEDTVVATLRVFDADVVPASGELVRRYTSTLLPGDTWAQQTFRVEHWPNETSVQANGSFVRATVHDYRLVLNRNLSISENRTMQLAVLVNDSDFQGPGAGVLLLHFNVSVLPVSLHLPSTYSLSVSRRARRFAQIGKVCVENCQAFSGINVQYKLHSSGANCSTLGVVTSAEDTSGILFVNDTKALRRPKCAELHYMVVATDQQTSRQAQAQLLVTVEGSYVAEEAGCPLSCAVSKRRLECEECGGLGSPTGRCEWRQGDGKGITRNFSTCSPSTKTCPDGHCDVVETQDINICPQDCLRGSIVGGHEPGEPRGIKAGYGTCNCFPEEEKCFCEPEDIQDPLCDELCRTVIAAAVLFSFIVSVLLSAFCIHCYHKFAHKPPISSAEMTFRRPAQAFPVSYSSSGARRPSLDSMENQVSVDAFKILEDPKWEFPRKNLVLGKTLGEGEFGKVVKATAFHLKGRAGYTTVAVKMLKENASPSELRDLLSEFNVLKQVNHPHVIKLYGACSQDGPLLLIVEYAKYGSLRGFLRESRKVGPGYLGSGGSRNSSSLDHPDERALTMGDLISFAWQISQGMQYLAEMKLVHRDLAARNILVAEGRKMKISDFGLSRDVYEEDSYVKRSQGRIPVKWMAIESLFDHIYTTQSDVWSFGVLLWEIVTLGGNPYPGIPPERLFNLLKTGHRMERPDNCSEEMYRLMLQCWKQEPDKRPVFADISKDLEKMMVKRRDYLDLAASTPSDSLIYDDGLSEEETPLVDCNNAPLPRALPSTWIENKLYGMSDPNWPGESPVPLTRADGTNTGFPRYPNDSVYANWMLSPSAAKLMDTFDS
Experimental: Compounds disclosed herein were tested for the inhibition of RET by a cancer cell proliferation assay commonly known as CellTiter-Glo assay. In this assay, a complete media was prepared by adding 10% fetal bovine serum to RPMI-1640 medium (Life technology) for RET-driven cancer cells (BAF3-FIF5B-RET, Ba/F3-KIF5B-RET-G810R, Ba/F3-TEL-RET-M918T or Ba/F3-KIF5B-RET-V804M). Individual RET-driven type of cells were added to each of 88 wells of a 96 well plate at a seeding density of 2,000 cells/well/95 μL. The cells were allowed to attach to the plate by incubating at 37° C. for 24 hours. The compound was dissolved in DMSO (SIGMA). A solution of test compound was prepared in complete media by serial dilution to obtain the following concentrations: 20 μM, 6.67 μM, 2.22 μM, 0.74 μM, 0.25 μM, 0.082 μM, 0.027 μM, 0.0091 μM and 0.0030 μM. The test compound solution (5 μL) was added to each of 80 cell-containing wells. The final concentrations of the compound were following: 1 μM, 0.33 μM, 0.11 μM, 0.037 μM, 0.012 μM, 0.0041 μM, 0.0014 μM, 0.00046 μM and 0.00015 μM. The final concentration of DMSO is 0.1%. To the 8 remaining cell-containing wells, only complete media (containing 0.1% DMSO) was added to form a control group in order to measure maximal proliferation. To the remaining 8 empty wells, complete media was added to for a vehicle control group in order to measure background. The plates were incubated at 37° C. for 72 hours. 50 μl of CellTiter-Glo® Reagent was added to each well. Mix contents for 2 minutes on an orbital shaker to induce cell lysis. Incubate at room temperature for 10 minutes to stabilize luminescent signal. Record luminescence on Paradigm. Cell viability (CV %) was calculated relative to vehicle (DMSO) treated control wells. The IC50 was calculated using GraphPad Prism.

BAF3 cells = assay: BAF3 Cell Proliferation Assay (CellTiter-Glo, without RET driven, IL-3); assay type: cell-based; details: Mus musculus; growth inhibition in BAF3 cells, 72 hours, with IL-3; read-out: BAF3 Cellular Activity
Experimental: Compounds disclosed herein were tested for the inhibition BAF3 cells proliferation without RET driven by CellTiter-Glo assay. In this assay, a complete media was prepared by adding 10% fetal bovine serum and 1 ng/ml IL-3 to RPMI-1640 medium (Life technology) for BAF3 cells. BAF3 cells were added to each of 88 wells of a 96 well plate at a seeding density of 2,000 cells/well/95 μL. The cells were allowed to attach to the plate by incubating at 37° C. for 24 hours. The compound was dissolved in DMSO (SIGMA). A solution of test compound was prepared in complete media by serial dilution to obtain the following concentrations: 200 μM, 66.7 μM, 22.2 μM, 7.4 μM, 2.5 μM, 0.82 μM, 0.27 μM, 0.091 μM and […]. The test compound solution (5 μL) was added to each of 80 cell-containing wells. The final concentrations of the compound were following: 10 μM, 3.33 μM, 1.11 μM, 0.37 μM, 0.12 μM, 0.041 μM, 0.014 μM, 0.0046 μM and 0.0015 μM. The final concentration of DMSO is 0.1%. To the 8 remaining cell-containing wells, only complete media (containing 0.1% DMSO) was added to form a control group in order to measure maximal proliferation. To the remaining 8 empty wells, complete media was added to for a vehicle control group in order to measure background. The plates were incubated at 37° C. for 72 hours. 50 μl of CellTiter-Glo® Reagent was added to each well. The contents were mixed for 2 minutes on an orbital shaker to induce cell lysis, and then were incubated at room temperature for 10 minutes to stabilize luminescent signal. Luminescence was recorded on Paradigm. Cell viability (CV %) was calculated relative to vehicle (DMSO) treated control wells. The IC50 was calculated using GraphPad Prism.

SMILES | GI50 (BAF3-KIF5B-RET cells) | IC50 (BAF3 cells)
COc1ccc(CN2C3CC2CN(c2cnc(-c4cc(-c5ccc(C(C)(C)O)cn5)cn5ncc(C#N)c45)cn2)C3)cn1 [Example 1, 6-(5-(2-hydroxypropan-2-yl)pyridin-2-yl)-4-(5-(6-((6-methoxypyridin-3-yl)methyl)-3,6-diazabicyclo[3.1.1]heptan-3-yl)pyrazin-2-yl)pyrazolo[1,5-a]pyridine-3-carbonitrile] | 1.8 nM | 1020 nM
COc1ccc(C(=O)NC23CC4CC(C2)N(c2cnc(-c5cc(-c6ccc(C(C)(C)O)cn6)cn6ncc(C#N)c56)cn2)C(C4)C3)cn1 [Example 2, N-((1R,3S,5s,7s)-2-(5-(3-cyano-6-(5-(2-hydroxypropan-2-yl)pyridin-2-yl)pyrazolo[1,5-a]pyridin-4-yl)pyrazin-2-yl)-2-azaadamantan-5-yl)-6-methoxynicotinamide] | 8.9 nM | 362 nM
CC(C)(O)c1ccc(-c2cc(-c3ccc(N4C[C@@H]5[C@H](C4)[C@@H]5NC(=O)c4ncccc4Cl)nc3)c3c(C#N)cnn3c2)nc1 [Example 3, 3-chloro-N-((1R,5S,6r)-3-(5-(3-cyano-6-(5-(2-hydroxypropan-2-yl)pyridin-2-yl)pyrazolo[1,5-a]pyridin-4-yl)pyridin-2-yl)-3-azabicyclo[3.1.0]hexan-6-yl)picolinamide] | 110 nM | > 10000 nM
CC(C)(O)c1ccc(-c2cc(-c3cnc(N4C[C@@H]5C[C@@](C)(NC(=O)c6ncccc6Cl)C[C@@H]5C4)cn3)c3c(C#N)cnn3c2)nc1 [Example 6, 3-chloro-N-((3aR,5s,6aS)-2-(5-(3-cyano-6-(5-(2-hydroxypropan-2-yl)pyridin-2-yl)pyrazolo[1,5-a]pyridin-4-yl)pyrazin-2-yl)-5-methyloctahydrocyclopenta[c]pyrrol-5-yl)picolinamide] | 3.5 nM | 38.6 nM
COc1ccc(CN2C3CC2CN(c2ccc(-c4cc(-c5cncc(C(C)(C)O)c5)cn5ncc(C#N)c45)cn2)C3)cn1 [Example 7, 6-(5-(2-hydroxypropan-2-yl)pyridin-3-yl)-4-(6-(6-((6-methoxypyridin-3-yl)methyl)-3,6-diazabicyclo[3.1.1]heptan-3-yl)pyridin-3-yl)pyrazolo[1,5-a]pyridine-3-carbonitrile] | 48.1 nM | > 10000 nM
COc1ccc(CN2C3CC2CN(c2ccc(-c4cc(-c5ccc(C(C)(C)N)nc5)cn5ncc(C#N)c45)cn2)C3)cn1 [Example 14, 6-(6-(2-aminopropan-2-yl)pyridin-3-yl)-4-(6-(6-((6-methoxypyridin-3-yl)methyl)-3,6-diazabicyclo[3.1.1]heptan-3-yl)pyridin-3-yl)pyrazolo[1,5-a]pyridine-3-carbonitrile] | 2.8 nM | 1000 nM
COc1ccc(CN2C3CC2CN(c2ccc(-c4cc(-c5cnc(C(C)(C)O)cn5)cn5ncc(C#N)c45)cn2)C3)cn1 [Example 15, 6-(5-(2-hydroxypropan-2-yl)pyrazin-2-yl)-4-(6-(6-((6-methoxypyridin-3-yl)methyl)-3,6-diazabicyclo[3.1.1]heptan-3-yl)pyridin-3-yl)pyrazolo[1,5-a]pyridine-3-carbonitrile] | 3.9 nM | 2600 nM
COc1ccc(CN2C3CC2CN(c2ccc(-c4cc(-c5ccc(C(C)(C)N)cn5)cn5ncc(C#N)c45)cn2)C3)cn1 [Example 16, 6-(5-(2-aminopropan-2-yl)pyridin-2-yl)-4-(6-(6-((6-methoxypyridin-3-yl)methyl)-3,6-diazabicyclo[3.1.1]heptan-3-yl)pyridin-3-yl)pyrazolo[1,5-a]pyridine-3-carbonitrile] | 2.2 nM | 1080 nM
COc1ccc(CN2C3CC2CN(c2ccc(-c4cc(-c5ccc(C6(N)CC6)cn5)cn5ncc(C#N)c45)cn2)C3)cn1 [Example 17, 6-(5-(1-aminocyclopropyl)pyridin-2-yl)-4-(6-(6-((6-methoxypyridin-3-yl)methyl)-3,6-diazabicyclo[3.1.1]heptan-3-yl)pyridin-3-yl)pyrazolo[1,5-a]pyridine-3-carbonitrile] | 4.2 nM | 2770 nM
COc1ccc(CN2C3CC2CN(c2ccc(-c4cc(-c5ccc(C(C)(C)O)nn5)cn5ncc(C#N)c45)cn2)C3)cn1 [Example 19, 6-(6-(2-hydroxypropan-2-yl)pyridazin-3-yl)-4-(6-(6-((6-methoxypyridin-3-yl)methyl)-3,6-diazabicyclo[3.1.1]heptan-3-yl)pyridin-3-yl)pyrazolo[1,5-a]pyridine-3-carbonitrile] | 1.7 nM | 1260 nM
COc1ccc(CN2C3CC2CN(c2cnc(-c4cc(-c5ccc(C(C)(C)O)nn5)cn5ncc(C#N)c45)cn2)C3)cn1 [Example 20, 6-(6-(2-hydroxypropan-2-yl)pyridazin-3-yl)-4-(5-(6-((6-methoxypyridin-3-yl)methyl)-3,6-diazabicyclo[3.1.1]heptan-3-yl)pyrazin-2-yl)pyrazolo[1,5-a]pyridine-3-carbonitrile] | 6.7 nM | 1480 nM
CC(C)(O)c1ccc(-c2cc(-c3ccc(N4C[C@@H]5[C@H](C4)[C@H]5NC(=O)c4ncccc4Cl)nc3)c3c(C#N)cnn3c2)nc1 [Example 21, 3-chloro-N-((1R,5S,6s)-3-(5-(3-cyano-6-(5-(2-hydroxypropan-2-yl)pyridin-2-yl)pyrazolo[1,5-a]pyridin-4-yl)pyridin-2-yl)-3-azabicyclo[3.1.0]hexan-6-yl)picolinamide] | 28.8 nM | 351 nM
COc1ccc(CN2C3CC2CN(c2ccc(-c4cc(-c5ccc(C(C)(C)O)cc5)cn5ncc(C#N)c45)cn2)C3)cn1 [Example 22, 6-(4-(2-hydroxypropan-2-yl)phenyl)-4-(6-(6-((6-methoxypyridin-3-yl)methyl)-3,6-diazabicyclo[3.1.1]heptan-3-yl)pyridin-3-yl)pyrazolo[1,5-a]pyridine-3-carbonitrile] | 0.7 nM | 756 nM
COc1ccc(CN2C3CC2CN(c2ccc(-c4cc(-c5ncc(C(C)(C)O)cc5F)cn5ncc(C#N)c45)cn2)C3)cn1 [Example 24, 6-(3-fluoro-5-(2-hydroxypropan-2-yl)pyridin-2-yl)-4-(6-(6-((6-methoxypyridin-3-yl)methyl)-3,6-diazabicyclo[3.1.1]heptan-3-yl)pyridin-3-yl)pyrazolo[1,5-a]pyridine-3-carbonitrile] | 3.5 nM | 2540 nM
COc1ccc(C(=O)N2C3CC2CN(c2ccc(-c4cc(-c5ccc(C(C)(C)O)cn5)cn5ncc(C#N)c45)cn2)C3)cn1 [Example 25, 6-(5-(2-hydroxypropan-2-yl)pyridin-2-yl)-4-(6-(6-(6-methoxynicotinoyl)-3,6-diazabicyclo[3.1.1]heptan-3-yl)pyridin-3-yl)pyrazolo[1,5-a]pyridine-3-carbonitrile] | 2.7 nM | 6650 nM
COc1ccc(CN2C3CC2CN(c2ccc(-c4cc(-c5cc(C(C)(C)O)nn5C)cn5ncc(C#N)c45)cn2)C3)cn1 [Example 26, 6-(3-(2-hydroxypropan-2-yl)-1-methyl-1H-pyrazol-5-yl)-4-(6-(6-((6-methoxypyridin-3-yl)methyl)-3,6-diazabicyclo[3.1.1]heptan-3-yl)pyridin-3-yl)pyrazolo[1,5-a]pyridine-3-carbonitrile] | 46.8 nM | > 10000 nM
